B1: pScram FP probe (dsDNA)
DNA 1: TAAGTCCTAAATGGAAATTAAATTACGTAATTCACAAATATAGTATGATCATTTATATCA
DNA 2: TGATATAAATGATCATACTATATTTGTGAATTACGTAATTTAATTTCCATTTAGGACTTA
B2: pScram EMSA probe (dsDNA)
DNA 1: GTGCCCTGGTCTGG
DNA 2: B1 DNA 1
DNA 3: TGATATAAATGATCATACTATATTTGTGAATTACGTAATTTAATTTCCATTTAGGACTTACCAGACCAGGGCAC
B3: pvirB FP probe (dsDNA)
DNA 1: AGAATATTATTCTTTTATCCAATAAAGATAAATTGCATCAATCCAGCTATTAAAATAGTA
DNA 2: TACTATTTTAATAGCTGGATTGATGCAATTTATCTTTATTGGATAAAAGAATAATATTCT
B4: pvirB EMSA probe (dsDNA)
DNA 1: GTGCCCTGGTCTGG
DNA 2: B3 DNA 1
DNA 3: TACTATTTTAATAGCTGGATTGATGCAATTTATCTTTATTGGATAAAAGAATAATATTCTCCAGACCAGGGCAC

Legend:
[1] = test system: spread of an active S. flexneri infection; conditions: at concentrations at or below their IC50s in the reporter assay; cited from earlier work
[2] = target: T1, MalE-VirF binding to the 5'Cy5-pvirB DNA probe (Shigella flexneri, UniProt P0A2T1); assay: Electrophoretic mobility shift assay (EMSA) of MalE-VirF binding to pvirB DNA probe; conditions: compound 100 μM; MalE-VirF 1 μM; probe 0.25 μM
T1 construct: pMALvirF was constructed by cloning the virF gene into the vector, pMAL-c2x; made in house; host or cells: Shigella flexneri BS103 (pBAD202-MALvirF); initial preparations in E. coli KS1000 (pMALvirF)
T1 sequence (P0A2T1 whole entry, looked up): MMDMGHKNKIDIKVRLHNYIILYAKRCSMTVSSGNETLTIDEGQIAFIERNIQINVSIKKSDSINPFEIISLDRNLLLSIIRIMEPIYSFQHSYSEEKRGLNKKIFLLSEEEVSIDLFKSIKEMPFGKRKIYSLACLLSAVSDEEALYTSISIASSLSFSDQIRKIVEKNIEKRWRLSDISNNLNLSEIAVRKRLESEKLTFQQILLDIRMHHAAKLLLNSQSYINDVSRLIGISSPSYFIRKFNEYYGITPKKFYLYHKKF
Description: Reactions for the EMSAs were incubated in a 37°C water bath for 15 minutes. Reactions (15 μL total volume) were composed of 6 μL pvirB EMSA DNA probe (0.25 μM), 6 μL of either MalE-VirF (1.0 μM) or native gel loading buffer (Tris-HCl 0.3 M, 50% glycerol, 0.05% bromophenol blue, pH 7.0), 1 μL of salmon sperm DNA (0.7 mg/mL, Invitrogen), 0.5 μL BSA (0.07 mg/mL), and 1.5 μL of either DMSO or compound (100 μM). A 6% native polyacrylamide gel (29:1 acrylamide to bis-acrylamide ratio) was made with 0.25X TBE buffer (22 mM Tris Base, 22 mM boric acid, 0.5 mM EDTA, pH 9.5) for the EMSA. The gel was electrophoresed for 1 hour at 150 V in 0.25X TBE buffer at 4°C before samples were loaded. After the reaction solutions (12 μL) were loaded onto the gel, the gel was electrophoresed for an additional hour at 150 V and 4°C. The gel was then visualized using FluorChem M gel imager (Protein Simple, Santa Clara, CA) with a 607 nm excitation wavelength and a 710 nm emission filter.

[3] = target: T2, MalE-VirF binding to the pvirB DNA probe (Shigella flexneri, UniProt P0A2T1); assay: Fluorescence polarization (FP) assay, inhibition of MalE-VirF binding to the pvirB DNA probe; conditions: read-out: % Inhibition at 100 μM
T2 construct: pMALvirF was constructed by cloning the virF gene into the vector, pMAL-c2x; made in house; host or cells: Shigella flexneri BS103 (pBAD202-MALvirF); initial preparations in E. coli KS1000 (pMALvirF)
T2 sequence (P0A2T1 whole entry, looked up): as above
Description: The FP assays were conducted in duplicate in black, half-area, 96-well plates (Corning, Twerksbury, MA). First, 30 μL of 5’-Fluoroscein-pvirB DNA probe working standard was added to appropriate wells of the microplate. The pvirB DNA working standard was in TE/NaCl buffer (see above) supplemented with BSA (0.07 mg/mL) and salmon sperm DNA (0.7 mg/mL). Next, 30 μL of varying concentrations of MalE-VirF in amylose resin elution buffer (see above) was added to appropriate wells of the microplate. The final concentration of pvirB DNA was either 50 nM (for test wells) or none (for blank wells) and the final concentrations of MalE-VirF ranged from 45 μM to 0.12 μM (for test wells) or none (for control wells). For each concentration of MalE-VirF tested, a blank well was also set up that included all reagents except pvirB DNA. The microplate was then incubated for 20 minutes at 37°C and anisotropy was determined using a SpectraMax M5 plate reader (Molecular Devices, Sunnyvale, CA). Data was acquired using an excitation wavelength equal to 490 nm and an emission wavelength equal to 520 nm. To determine anisotropy the following equation was used: Anisotropy=F∥-G^*F⊥/F∥+2^*G^*F⊥^*1000 where: Fǁ = fluorescence intensity parallel to excitation source after blanking, F┴ = fluorescence intensity perpendicular to excitation source after blanking, and G = G-factor (correction for polarization bias of the detection system). After anisotropy was determined, data were plotted using GraphPad Prism (La Jolla, Ca) and fit to the following equation: […] where Y = specific binding, KD = dissociation constant, BMAX = maximum binding, X = MalE-VirF concentration, and b = y-intercept.
The FP protocol listed above was adapted to determine the IC50 of the small molecule hit compounds. Compounds (ranging from 200 μM to 3.1 μM) or DMSO for controls (1% final concentration) were added to the pvirB DNA probe working standard prior to addition to the microplates. For IC50 determination, the MalE-VirF and pvirB DNA probe concentrations were held constant at 20 μM and 50 nM, respectively. Positive controls were established to determine 100% VirF inhibition (no MalE-VirF present, 50 nM pvirB DNA probe) and negative controls were set up to determine no VirF inhibition (1% DMSO, 20 μM MalE-VirF, and 50 nM pvirB DNA probe). Once again blanks were set up to include all reagents, except pvirB DNA probe. All reactions were run in duplicate. Anisotropy was calculated as listed above and data were plotted using GraphPad Prism then fit to the following equation: Y=Bottom+(Top-Bottom)/(1+10^(X-logIC50)) where: Y = anisotropy, X = log of compound concentration (M), Top and Bottom = plateaus in anisotropy units, and LogIC50 = log of the concentration that inhibits 50% of VirF binding. In the presence of the compounds (no VirF), a small increase (~6%) in the DNA anisotropy was observed.
The FP protocol used for IC50 determination was adapted to test a library of small molecule inhibitors of VirF. All steps were identical to the above protocol except compounds were tested at only 100 μM final concentration and positive control samples included 100 μM of compound. Once again blanks were set up to include all reagents, except pvirB DNA probe, and all reactions were run in duplicate. Anisotropy was calculated as listed above, and %inhibition was calculated as follows: %inhibition=rneg-rtest/rneg^*100 where: rneg = average anisotropy for negative controls and rtest = average anisotropy in presence of compound. Note: All rneg and rtest values were normalized to positive control values.

[4] = test system: 10 bp pvirB 51-60 FID (DNA, duplex) TAAAATAGTA/TACTATTTTA; assay: fluorescent intercalator displacement (ethidium bromide); conditions: 0.1 M NaCl; 0.1 M Tris-HCl pH 8.0, room temperature; 7.5 μM ethidium; 1.5 μM DNA; highest tested 100 μM
[5] = test system: 60 bp pvirB FID (DNA, duplex) AGAATATTATTCTTTTATCCAATAAAGATAAATTGCATCAATCCAGCTATTAAAATAGTA/TACTATTTTAATAGCTGGATTGATGCAATTTATCTTTATTGGATAAAAGAATAATATTCT; assay: as above; conditions: 0.1 M NaCl; 0.1 M Tris-HCl pH 8.0, room temperature; 45 μM ethidium; 1.5 μM DNA; highest tested 100 μM
MalE-VirF [6] = target: T3, MalE-VirF (Shigella flexneri, UniProt P0A2T1 1-262); assay: fluorescence anisotropy; 20 uM MalE-VirF, 50 nM DNA (r = 39 alone, 36 with protein); conditions: protein: recombinant; tags: N-terminal MalE (MBP) fusion, not cleaved; label: 5'-fluorescein on top strand; blunt
T3 sequence (P0A2T1 whole entry, the tested form may be a part): as the sequence (P0A2T1 whole entry, looked up) above

MalE-VirF [7] = target: T3, MalE-VirF; assay: EMSA; 1 uM MalE-VirF, 0.25 uM DNA; conditions: protein: recombinant, tags: N-terminal MalE (MBP) fusion, not cleaved, label: 5'-Cy5 on LUEGO strand (S5), blunt, three strands
MalE-VirF [8] = target: T3, MalE-VirF; assay: fluorescence anisotropy; conditions: protein: recombinant; tags: N-terminal MalE (MBP) fusion, not cleaved; label: 5'-fluorescein on top strand; blunt

Molecule	inhibition at 100 µM [3] [%]	other results
Clc1ccc2nc(COc3ccccc3)[nH]c2c1 [compound 153578]		Inhibition of the spread of an active S. flexneri infection [1]: approximately 75%; Effect on MalE-VirF binding to the pvirB DNA probe (EMSA) [2]: little to no effect on DNA binding
CCN(CC)CCOc1nc(-c2ccccc2)nc2c1oc1ccccc12 [compound 587109]	43 ± 1	
c1ccc(-c2nc(N3CCN(c4ccccc4)CC3)c3oc4ccccc4c3n2)cc1 [compound 568180]	2 ± 0.1	
CCc1nc(OCCN(C)C)c2oc3ccccc3c2n1 [compound 587469]	16 ± 0.4	
CCN(CC)CCNc1nc(-c2ccccc2)nc2c1oc1ccccc12 [compound 048373]	15 ± 0.4	
CCN(CC)CCCOc1nc(-c2ccccc2)nc2c1oc1ccccc12 [compound 598089]	68	
CCN(CC)CCOc1nc(C)nc2c1oc1ccccc12 [compound 050908]	18 ± 0.4	
CN1CCN(c2nc(-c3ccccc3)nc3c2oc2ccccc23)CC1 [compound 078044]	42 ± 0.4	
CNCCOc1nc(-c2ccccc2)nc2c1oc1ccccc12		%fluorescence [4]: 95 ± 1%; %fluorescence [5]: 93 ± 3%
CCN(CC)c1cccc(Oc2nc(-c3ccccc3)nc3c2oc2ccccc23)c1 [compound 9660235]	5 ± 0.2	
c1ccc(-c2nc(N3CCOCC3)c3oc4ccccc4c3n2)cc1 [compound 9111063]	-5 ± 0.1	
c1ccc(-c2nc(Oc3cccnc3)c3oc4ccccc4c3n2)cc1 [compound 9660232]	17 ± 2	
O=c1[nH]c(-c2ccc(C(F)(F)F)cc2)nc2c1oc1ccccc12 [compound 765345]	1 ± 0.1	
B1		binding result (MalE-VirF [6]): no binding
B2		binding result (MalE-VirF [7]; LUEGO (S5) and top (S3) abut with a nick on bottom S4 (74 nt)): no binding
B3		Kd (MalE-VirF [8]): 2800 ± 1000 nM
B4		binding result (MalE-VirF [7]; LUEGO (S5) and top (S1) abut with a nick on bottom S2 (74 nt)): binds

Reference: article PMC4564171 (PLoS ONE, 2015)
